Assay results reported in patent US20260248775A1, “NEW INHIBITORS OF PHOSPHATIDYLINOSITOL 3-KINASE” (INSTITUT NATIONAL DE LA SANTÉ ET DE LA RECHERCHE MÉDICALE, priority 2022, published 2026).

How the values were obtained:
[1] = target: PI3K-δ (Homo sapiens, UniProt O00329); test: PI3K-inhibitory activity, enzymatic HTRF assay, PI3K-δ; assay type: biochemical; conditions: read-out: Class IC50 PI3K-δ
[2] = target: PI3K-α (PI3K p110a/p65a (h)) (Homo sapiens, UniProt P42336); test: PI3K-inhibitory activity, enzymatic HTRF assay, PI3K-α; assay type: biochemical; conditions: 10 μM PIP2, 30 minutes at room temperature, read-out: Class IC50 PI3K-α
Protocol: (§1) Inhibitory activity of compounds against the Human PtdIns (4,5) P 3-kinase activity was quantified employing the enzymatic HTRF (Homogeneous Time Resolved Fluorescence) Assay.
(§2) PI3K p110a/[…] (h) is incubated in assay buffer containing 10 μM phosphatidylinositol 4,5-bisphosphate and Mg/ATP (concentration as required). The reaction is initiated by the addition of the ATP solution. After incubation for 30 minutes at room temperature, the reaction is stopped by the addition of stop solution containing EDTA and biotinylated phosphatidylinositol-3,4,5-trisphosphate. Finally, detection buffer is added, which contains europium-labelled anti-GST monoclonal antibody, GST-tagged GRP1 PH domain and streptavidin allophycocyanin. The plate is then read in time resolved fluorescence mode and the homogeneous time-resolved fluorescence (HTRF) signal is determined according to the formula HTRF=10000×(Em665 nm/Em620 nm)

[3] = target: PI3K-γ (Homo sapiens, UniProt P48736); test: PI3K-inhibitory activity, enzymatic HTRF assay, PI3K-γ; assay type: biochemical; conditions: read-out: Class IC50 PI3K-γ
Protocol: [The procedure below names another target; the source lists this target under the same test.] as §1, §2

[4] = target: PI3K-β (Homo sapiens, UniProt P42338); test: PI3K-inhibitory activity, enzymatic HTRF assay, PI3K-β; assay type: biochemical; conditions: read-out: Class IC50 PI3K-β
Protocol: [The procedure below names another target; the source lists this target under the same test.] as §1, §2

[5] = system: NZBWF1/J mice; test: Kidney lesions in lupus model, uninephrectomized NZBWF1/J mice; assay type: in vivo, mouse; conditions: 50 mg/kg/day orally
Protocol: FIG. 1 (A to C) illustrates the ability of Compound 5 of the invention to improve kidney lesions in NZBWF1/J mouse model. A. Urinary albumin to creatinine ratio (Ualb/Cre) (Ordinate, mg/mmol). Abscissa (From left to right): Vehicle and Compound 5 (50 mg/kg). B. Blood urea nitrogen level (BUN) (Ordinate, mmol/L). Abscissa (From left to right): Vehicle and Compound 5 (50 mg/kg). C. Glomerular lesion score of kidneys 4 weeks after uninephrectomy followed by treatment with either the vehicle or Compound 5 (n=6 mice per group). AU: Arbitrary Unit (Ordinate). Abscissa (From left to right): Vehicle and Compound 5 (50 mg/kg).
NZBWF1/J mice gradually develop immune glomerulonephritis characterized by proteinuria and kidney dysfunction starting around 25 weeks of age. The uninephrectomy model was employed and uninephrectomy was performed on 12 female mice at 24 weeks of age.
As the incidence and severity of symptoms are more pronounced in females, only females were used in this study. The mice were then randomly assigned to receive either the vehicle (n=6) or Compound 5 50 mg/kg/day orally (n=6) for a duration of 4 weeks. At the end of the treatment period, the mice were sacrificed and their kidney histology was compared to samples obtained during the uninephrectomy procedure.

[6] = Blood insulin concentration after repeated oral gavage in C57B16 mice; assay type: in vivo, mouse; conditions: 50 mg/kg oral gavage daily for 5 days, plasma on day 6, male C57B16 mice, FIG. 2
Protocol: FIG. 2 illustrates the variation of insulin over time for the groups of mice treated either with a vehicle or with Compound 5 of the invention. Ordinate: insulin (ng/ml). Abscissa: time (hours).
C57B16 mice (n=3 mice per group, 3 males) aged of 8 weeks old were daily treated by either vehicle or Compound 5 (50 mg/kg) during 5 consecutive days through oral gavage. On day 6, insulin concentrations were measured at different time points before and after drug administration.
Insulin level was measured in plasma (7 μL in duplicate) using MSD u.plex (Mesoscale, ref 1526HK).

[7] = Blood glucose after repeated oral gavage in C57B16 mice; assay type: in vivo, mouse; conditions: 50 mg/kg oral gavage daily for 5 days, measured on day 6, C57B16 mice, vs vehicle
Protocol: C57B16 mice (n=6 mice per group, 3 males and 3 females) aged of 8 weeks old were daily treated by either vehicle or Compound 5 (50 mg/kg) during 5 consecutive days through oral gavage.
On day 6, blood glucose concentrations were measured at different time points before and after drug administration.

Sequence of PI3K-γ (P48736 whole entry): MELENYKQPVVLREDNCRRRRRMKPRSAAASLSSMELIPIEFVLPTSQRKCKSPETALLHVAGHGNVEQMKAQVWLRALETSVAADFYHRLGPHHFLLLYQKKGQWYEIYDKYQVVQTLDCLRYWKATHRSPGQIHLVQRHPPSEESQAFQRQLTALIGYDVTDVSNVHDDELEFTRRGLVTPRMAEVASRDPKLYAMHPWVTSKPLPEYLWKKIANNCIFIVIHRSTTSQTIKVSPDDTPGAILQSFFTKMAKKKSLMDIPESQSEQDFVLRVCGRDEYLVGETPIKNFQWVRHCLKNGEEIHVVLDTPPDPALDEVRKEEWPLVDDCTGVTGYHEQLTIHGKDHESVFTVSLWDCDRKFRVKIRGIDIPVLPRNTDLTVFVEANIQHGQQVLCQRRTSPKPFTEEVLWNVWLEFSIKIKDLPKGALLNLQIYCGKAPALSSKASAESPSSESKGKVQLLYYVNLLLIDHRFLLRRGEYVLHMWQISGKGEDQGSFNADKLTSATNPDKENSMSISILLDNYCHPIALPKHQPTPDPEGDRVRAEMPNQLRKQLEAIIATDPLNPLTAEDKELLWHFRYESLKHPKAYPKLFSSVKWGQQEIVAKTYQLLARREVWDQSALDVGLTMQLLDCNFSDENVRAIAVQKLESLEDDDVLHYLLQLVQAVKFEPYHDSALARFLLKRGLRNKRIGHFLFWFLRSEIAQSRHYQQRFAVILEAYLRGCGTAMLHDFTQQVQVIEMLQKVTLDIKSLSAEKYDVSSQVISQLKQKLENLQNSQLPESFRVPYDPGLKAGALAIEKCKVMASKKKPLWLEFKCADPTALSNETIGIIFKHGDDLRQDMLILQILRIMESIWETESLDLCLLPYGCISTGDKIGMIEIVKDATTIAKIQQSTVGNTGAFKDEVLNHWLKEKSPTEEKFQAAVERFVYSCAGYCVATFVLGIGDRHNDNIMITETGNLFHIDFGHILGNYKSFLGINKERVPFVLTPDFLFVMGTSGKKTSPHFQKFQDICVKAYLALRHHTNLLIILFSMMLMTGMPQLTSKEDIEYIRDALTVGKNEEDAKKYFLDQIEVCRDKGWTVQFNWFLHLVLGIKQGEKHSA
Sequence of PI3K-α (PI3K p110a/p65a (h)) (P42336 whole entry): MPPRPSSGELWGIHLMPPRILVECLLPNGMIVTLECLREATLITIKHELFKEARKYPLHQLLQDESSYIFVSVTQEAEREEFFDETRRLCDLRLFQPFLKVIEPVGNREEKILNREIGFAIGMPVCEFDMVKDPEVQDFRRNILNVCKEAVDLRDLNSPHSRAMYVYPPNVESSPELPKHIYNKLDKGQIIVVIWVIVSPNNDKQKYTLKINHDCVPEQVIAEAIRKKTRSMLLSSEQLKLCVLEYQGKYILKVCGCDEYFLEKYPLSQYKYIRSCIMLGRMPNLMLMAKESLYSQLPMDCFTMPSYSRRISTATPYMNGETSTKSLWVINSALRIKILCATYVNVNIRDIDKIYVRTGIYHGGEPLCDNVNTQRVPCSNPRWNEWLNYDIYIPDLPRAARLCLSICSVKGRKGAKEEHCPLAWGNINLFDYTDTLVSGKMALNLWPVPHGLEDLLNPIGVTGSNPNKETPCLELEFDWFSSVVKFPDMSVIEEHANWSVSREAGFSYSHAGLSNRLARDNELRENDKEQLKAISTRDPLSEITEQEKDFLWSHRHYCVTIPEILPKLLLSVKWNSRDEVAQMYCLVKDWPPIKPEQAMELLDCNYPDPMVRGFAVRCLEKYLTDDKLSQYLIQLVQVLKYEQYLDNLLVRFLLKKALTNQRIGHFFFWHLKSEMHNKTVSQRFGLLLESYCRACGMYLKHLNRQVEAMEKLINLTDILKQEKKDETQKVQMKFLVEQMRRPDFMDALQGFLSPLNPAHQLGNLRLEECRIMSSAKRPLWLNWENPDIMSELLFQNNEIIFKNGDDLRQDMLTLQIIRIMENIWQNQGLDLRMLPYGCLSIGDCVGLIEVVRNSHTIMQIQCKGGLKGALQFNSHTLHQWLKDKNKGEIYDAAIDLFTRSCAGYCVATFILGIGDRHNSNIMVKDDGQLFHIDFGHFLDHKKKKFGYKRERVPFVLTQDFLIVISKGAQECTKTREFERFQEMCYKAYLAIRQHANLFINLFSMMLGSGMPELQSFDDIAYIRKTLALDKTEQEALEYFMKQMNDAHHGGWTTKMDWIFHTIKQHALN
Sequence of PI3K-β (P42338 whole entry): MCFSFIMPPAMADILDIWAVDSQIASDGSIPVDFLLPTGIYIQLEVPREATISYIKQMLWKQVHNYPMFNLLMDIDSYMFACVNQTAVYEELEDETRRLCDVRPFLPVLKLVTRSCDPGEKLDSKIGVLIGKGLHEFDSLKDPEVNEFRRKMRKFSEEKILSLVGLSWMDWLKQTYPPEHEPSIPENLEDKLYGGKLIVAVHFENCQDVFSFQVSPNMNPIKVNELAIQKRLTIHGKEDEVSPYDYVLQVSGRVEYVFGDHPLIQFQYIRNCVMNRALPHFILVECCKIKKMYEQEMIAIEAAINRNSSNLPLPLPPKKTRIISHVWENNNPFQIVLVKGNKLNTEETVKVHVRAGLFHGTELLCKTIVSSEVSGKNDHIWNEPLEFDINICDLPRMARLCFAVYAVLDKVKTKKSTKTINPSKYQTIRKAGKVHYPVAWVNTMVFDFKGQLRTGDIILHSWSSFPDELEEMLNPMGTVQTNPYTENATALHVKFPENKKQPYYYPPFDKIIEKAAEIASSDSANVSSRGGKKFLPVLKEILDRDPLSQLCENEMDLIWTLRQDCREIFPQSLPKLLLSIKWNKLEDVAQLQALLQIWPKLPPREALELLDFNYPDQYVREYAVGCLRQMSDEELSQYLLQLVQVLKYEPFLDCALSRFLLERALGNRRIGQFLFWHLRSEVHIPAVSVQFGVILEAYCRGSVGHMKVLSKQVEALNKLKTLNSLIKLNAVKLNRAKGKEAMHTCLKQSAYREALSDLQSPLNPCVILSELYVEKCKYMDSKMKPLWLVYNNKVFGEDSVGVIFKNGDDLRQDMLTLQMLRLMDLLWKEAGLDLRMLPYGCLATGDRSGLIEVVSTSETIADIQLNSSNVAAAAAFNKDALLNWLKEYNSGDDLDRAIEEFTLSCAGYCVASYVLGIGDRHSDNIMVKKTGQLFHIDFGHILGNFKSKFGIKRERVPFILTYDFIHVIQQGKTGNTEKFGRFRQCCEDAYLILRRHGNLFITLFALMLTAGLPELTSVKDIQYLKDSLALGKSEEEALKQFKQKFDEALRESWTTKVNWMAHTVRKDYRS
Sequence of PI3K-β (P27986 whole entry partner): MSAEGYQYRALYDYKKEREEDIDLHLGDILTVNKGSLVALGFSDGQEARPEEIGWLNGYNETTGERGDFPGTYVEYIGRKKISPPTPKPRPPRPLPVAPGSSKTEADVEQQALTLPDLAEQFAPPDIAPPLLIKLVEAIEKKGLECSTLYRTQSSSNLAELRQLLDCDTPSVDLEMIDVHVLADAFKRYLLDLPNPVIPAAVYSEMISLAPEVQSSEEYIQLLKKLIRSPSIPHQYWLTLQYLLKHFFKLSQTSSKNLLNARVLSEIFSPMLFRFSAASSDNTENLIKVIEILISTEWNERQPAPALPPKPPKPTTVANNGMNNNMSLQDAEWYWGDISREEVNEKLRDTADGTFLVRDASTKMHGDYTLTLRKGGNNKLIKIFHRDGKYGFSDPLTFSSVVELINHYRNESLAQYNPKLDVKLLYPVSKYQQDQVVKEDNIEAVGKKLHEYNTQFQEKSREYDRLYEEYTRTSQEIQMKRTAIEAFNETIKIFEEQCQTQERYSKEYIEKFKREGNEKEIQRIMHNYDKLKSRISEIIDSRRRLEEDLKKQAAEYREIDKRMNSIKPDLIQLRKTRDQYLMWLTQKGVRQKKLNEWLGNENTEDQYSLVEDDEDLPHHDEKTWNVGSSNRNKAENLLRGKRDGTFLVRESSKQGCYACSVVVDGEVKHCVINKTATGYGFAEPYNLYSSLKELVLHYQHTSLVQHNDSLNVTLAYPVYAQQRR
Sequence of PI3K-δ (O00329 whole entry): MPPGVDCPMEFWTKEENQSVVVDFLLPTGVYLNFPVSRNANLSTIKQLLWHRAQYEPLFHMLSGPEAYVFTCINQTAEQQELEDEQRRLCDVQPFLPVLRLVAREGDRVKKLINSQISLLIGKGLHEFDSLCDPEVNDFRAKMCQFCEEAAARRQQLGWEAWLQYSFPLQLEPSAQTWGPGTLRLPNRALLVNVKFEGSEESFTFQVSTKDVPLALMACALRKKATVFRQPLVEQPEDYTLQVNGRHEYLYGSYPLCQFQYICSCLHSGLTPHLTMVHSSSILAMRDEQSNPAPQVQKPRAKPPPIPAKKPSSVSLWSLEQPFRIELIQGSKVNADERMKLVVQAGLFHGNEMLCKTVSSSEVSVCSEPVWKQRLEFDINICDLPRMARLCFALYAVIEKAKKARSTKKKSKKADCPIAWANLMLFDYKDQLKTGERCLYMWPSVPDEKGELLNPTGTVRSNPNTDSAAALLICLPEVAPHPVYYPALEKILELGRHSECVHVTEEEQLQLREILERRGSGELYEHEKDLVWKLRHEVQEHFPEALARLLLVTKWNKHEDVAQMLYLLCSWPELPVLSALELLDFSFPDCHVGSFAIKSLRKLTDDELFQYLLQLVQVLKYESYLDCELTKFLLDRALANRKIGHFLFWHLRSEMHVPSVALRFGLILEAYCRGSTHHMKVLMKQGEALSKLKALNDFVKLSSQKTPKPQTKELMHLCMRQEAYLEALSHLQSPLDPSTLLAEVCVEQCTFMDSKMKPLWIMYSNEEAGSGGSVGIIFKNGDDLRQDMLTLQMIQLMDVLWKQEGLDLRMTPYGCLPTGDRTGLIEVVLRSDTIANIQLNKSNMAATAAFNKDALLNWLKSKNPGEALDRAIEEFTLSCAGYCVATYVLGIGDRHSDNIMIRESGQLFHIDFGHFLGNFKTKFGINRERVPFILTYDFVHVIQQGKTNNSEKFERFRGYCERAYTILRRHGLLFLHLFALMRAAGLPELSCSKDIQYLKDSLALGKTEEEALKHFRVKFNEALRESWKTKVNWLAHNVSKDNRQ
Sequence of PI3K-δ (P27986 whole entry partner): as the sequence (P27986 whole entry partner) above

| SMILES | IC50 [1] [nM] | IC50 [2] [nM] | IC50 [3] [nM] | IC50 [4] [nM] | blood insulin concentration [6] | blood glucose [7] | glomerular lesions (glomerular lesion score) ([5]; 4 weeks after uninephrectomy, histology, FIG. 1C) | kidney-to-body weight ratio ([5]; 4 weeks, female uninephrectomized NZBWF1/J mice) | albuminuria (urinary albumin to creatinine ratio) ([5]; 4 weeks, female uninephrectomized NZBWF1/J mice, vs vehicle, FIG. 1A) | blood urea nitrogen levels ([5]; 4 weeks, female uninephrectomized NZBWF1/J mice, vs vehicle, FIG. 1B) |
| --- | --- | --- | --- | --- | --- | --- | --- | --- | --- | --- |
| Cc1nc(NC(=O)N2CC(F)(F)C[C@H]2C(N)=S)sc1-c1ccnc(C(C)(C)C(F)(F)F)c1 [Compound 1, (S)-2-carbamothioyl-4,4-difluoro-N-(4-methyl-5-(2-(1,1,1-trifluoro-2-methylpropan-2-yl)pyridin-4-yl)thiazol-2-yl)pyrrolidine-1-carboxamide] | 200 to 500 | 200 to 500 | > 1000 | > 1000 | – | – | – | – | – | – |
| Cc1nc(NC(=O)N2CC3(C[C@H]2C(N)=S)CC3(F)F)sc1-c1ccnc(C(C)(C)C(F)(F)F)c1 (stereo partly drawn) [Compound 4, (S)-6-carbamothioyl-N-(4-methyl-5-(2-(1,1,1-trifluoro-2-methylpropan-2-yl)pyridin-4-yl)thiazol-2-yl)-1,1-difluoro-5-azaspiro[2,4]heptane-5-carboxamide] | > 1000 | > 1000 | > 1000 | > 1000 | – | – | – | – | – | – |
| Cc1nc(NC(=O)N2CCC[C@@]2(C)C(N)=S)sc1-c1ccnc(C(C)(C)C(F)(F)F)c1 [Compound 6, (S)-2-carbamothioyl-2-methyl-N-(4-methyl-5-(2-(1,1,1-trifluoro-2-methylpropan-2-yl)pyridin-4-yl)thiazol-2-yl)pyrrolidine-1-carboxamide] | > 1000 | > 1000 | > 1000 | > 1000 | – | – | – | – | – | – |
| CO[C@@H]1C[C@@H](C(N)=S)N(C(=O)Nc2nc(C)c(-c3ccnc(C(C)(C)C(F)(F)F)c3)s2)C1 [Compound 7, (2S,4R)-2-carbamothioyl-4-methoxy-N-(4-methyl-5-(2-(1,1,1-trifluoro-2-methylpropan-2-yl)pyridin-4-yl)thiazol-2-yl)pyrrolidine-1-carboxamide] | 500 to 1000 | 50 to 200 | 200 to 500 | > 1000 | – | – | – | – | – | – |
| CO[C@H]1C[C@@H](C(N)=S)N(C(=O)Nc2nc(C)c(-c3ccnc(C(C)(C)C(F)(F)F)c3)s2)C1 [Compound 8, (2S,4S)-2-carbamothioyl-4-methoxy-N-(4-methyl-5-(2-(1,1,1-trifluoro-2-methylpropan-2-yl)pyridin-4-yl)thiazol-2-yl)pyrrolidine-1-carboxamide] | 500 to 1000 | 50 to 200 | 200 to 500 | > 1000 | – | – | – | – | – | – |
| Cc1nc(NC(=O)N2[C@H](C)CC[C@H]2C(N)=S)sc1-c1ccnc(C(C)(C)C(F)(F)F)c1 [Compound 9, (2S,5R)-2-carbamothioyl-5-methyl-N-(4-methyl-5-(2-(1,1,1-trifluoro-2-methylpropan-2-yl)pyridin-4-yl)thiazol-2-yl)pyrrolidine-1-carboxamide] | > 1000 | 200 to 500 | > 1000 | > 1000 | – | – | – | – | – | – |
| Cc1nc(NC(=O)N2C[C@@H](C(F)(F)F)C[C@H]2C(N)=S)sc1-c1ccnc(C(C)(C)C(F)(F)F)c1 [Compound 12, (2S,4S)-2-carbamothioyl-N-(4-methyl-5-(2-(1,1,1-trifluoro-2-methylpropan-2-yl)pyridin-4-yl)thiazol-2-yl)-4-(trifluoromethyl)pyrrolidine-1-carboxamide] | > 1000 | 500 to 1000 | > 1000 | > 1000 | – | – | – | – | – | – |

The next lines start with results.

| IC50 [1] [nM] | IC50 [2] [nM] | IC50 [3] [nM] | IC50 [4] [nM] | blood insulin concentration [6] | blood glucose [7] | SMILES | glomerular lesions (glomerular lesion score) ([5]; 4 weeks after uninephrectomy, histology, FIG. 1C) | kidney-to-body weight ratio ([5]; 4 weeks, female uninephrectomized NZBWF1/J mice) | albuminuria (urinary albumin to creatinine ratio) ([5]; 4 weeks, female uninephrectomized NZBWF1/J mice, vs vehicle, FIG. 1A) | blood urea nitrogen levels ([5]; 4 weeks, female uninephrectomized NZBWF1/J mice, vs vehicle, FIG. 1B) |
| --- | --- | --- | --- | --- | --- | --- | --- | --- | --- | --- |
| 200 to 500 | 50 to 200 | 200 to 500 | > 1000 | – | – | Cc1nc(NC(=O)N2C[C@H](F)C[C@H]2C(N)=S)sc1-c1ccnc(C(C)(C)C(F)(F)F)c1 [Compound 2, (2S,4R)-2-carbamothioyl-4-fluoro-N-(4-methyl-5-(2-(1,1,1-trifluoro-2-methylpropan-2-yl)pyridin-4-yl)thiazol-2-yl)pyrrolidine-1-carboxamide] | – | – | – | – |
| > 1000 | 50 to 200 | 200 to 500 | > 1000 | – | – | Cc1nc(NC(=O)N2C[C@@H](F)C[C@H]2C(N)=S)sc1-c1ccnc(C(C)(C)C(F)(F)F)c1 [Compound 3, (2S,4S)-2-carbamothioyl-4-fluoro-N-(4-methyl-5-(2-(1,1,1-trifluoro-2-methylpropan-2-yl)pyridin-4-yl)thiazol-2-yl)pyrrolidine-1-carboxamide] | – | – | – | – |
| 200 to 500 | ≤ 50 | 200 to 500 | > 1000 | no increase | modest increase | Cc1nc(NC(=O)N2CCC[C@H]2C(N)=S)sc1-c1ccnc(C(C)(C)C(F)(F)F)c1 [Compound 5, (S)-2-carbamothioyl-N-(4-methyl-5-(2-(1,1,1-trifluoro-2-methylpropan-2-yl)pyridin-4-yl)thiazol-2-yl)pyrrolidine-1-carboxamide] | remained stable | notably decreased | significant reductions | significant reductions |
| > 1000 | > 1000 | > 1000 | > 1000 | – | – | Cc1nc(NC(=O)N2[C@@H](C)CC[C@H]2C(N)=S)sc1-c1ccnc(C(C)(C)C(F)(F)F)c1 [Compound 10, (2S,5S)-2-carbamothioyl-5-methyl-N-(4-methyl-5-(2-(1,1,1-trifluoro-2-methylpropan-2-yl)pyridin-4-yl)thiazol-2-yl)pyrrolidine-1-carboxamide] | – | – | – | – |
| 200 to 500 | ≤ 50 | 200 to 500 | > 1000 | – | – | Cc1nc(NC(=O)N2C[C@H](O)C[C@H]2C(N)=S)sc1-c1ccnc(C(C)(C)C(F)(F)F)c1 [Compound 13, (2S,4R)-2-carbamothioyl-4-hydroxy-N-(4-methyl-5-(2-(1,1,1-trifluoro-2-methylpropan-2-yl)pyridin-4-yl)thiazol-2-yl)pyrrolidine-1-carboxamide] | – | – | – | – |
| 200 to 500 | ≤ 50 | 200 to 500 | > 1000 | – | – | Cc1nc(NC(=O)N2CC[C@H](O)[C@H]2C(N)=S)sc1-c1ccnc(C(C)(C)C(F)(F)F)c1 [Compound 14, (2S,3S)-2-carbamothioyl-3-hydroxy-N-(4-methyl-5-(2-(1,1,1-trifluoro-2-methylpropan-2-yl)pyridin-4-yl)thiazol-2-yl)pyrrolidine-1-carboxamide] | – | – | – | – |
